Assay [1] deals with T1, FPR1 (Homo sapiens (Human), UniProt P21462). Kind of assay: Reactive oxygen species (ROS) assay in human neutrophils stimulated with fMLP. The class given is cell-based. The note with it: human neutrophils from whole blood; fMLP (500 nM); DCFH-DA fluorescence; read-out: Anti-ROS IC50. Here is the method: Reactive Oxygen Species (ROS) Assay
Human whole blood was collected, and ACK lysis buffer (ThermoFisher, A1049201) was added at 3 times the volume of the blood sample to lyse the red blood cells. The sample was incubated on ice for 15 minutes, and gently mixed twice during the incubation. 10 mL DPBS was then added, and the sample was centrifuged for 8 minutes. After removing the supernatant, remaining cells were resuspended in RPMI1640 medium containing 3% FBS and centrifuged again for 10 minutes. After removing the supernatant, cells were again resuspended in RPMI1640 medium containing 3% FBS. Neutrophil cell count was determined using FACS analysis by APC-labeled CD11b antibody (Biolegend, 101211) and FITC-labeled CD66b antibody (Biolegend, 305104). Neutrophils were then plated into 96-well plates (300,000/well). Plates were centrifuged and supernatant was removed. Cells were resuspended in 80 μL of compound solution (prepared in RPMI1640 medium containing 3% FBS), then incubated at room temperature for 15 minutes. 20 μL solution containing DCFH-DA (at the manufacturer's recommended concentration, Yeasen Biotechnology, 50101ES01) and fMLP (500 nM) was then added. Cells were incubated at 37° C. in 5% CO2 for 20 minutes away from light. After incubation, cells were placed on ice for 5 minutes, washed twice with 200 μL ice-cold DPBS, then resuspended in ice-cold DPBS at 100 µL/well. Fluorescence from each sample was measured at 485 nm excitation and 535 nm emission.
(§1) The effects of the compounds of the present disclosure on regulating the FPR1-mediated cell signaling were measured by monitoring the cellular cAMP level change and anti-reactive oxygen species formation in human neutrophils in the presence of an FPR1 agonist, respectively, as illustrated by the examples in Table 1.

Assay [2] has as its target T1, FPR1. Put plainly: Cyclic adenosine monophosphate (cAMP) assay, CHO-K1 cells stably overexpressing hFPR1. Type of assay: cell-based. The note with it: 2.5 μM Forskolin and 0.25 nM WKYMVm (FPR1 agonist). Here is the method:
Cyclic Adenosine Monophosphate (cAMP) Assay
CHO-K1 cells stably overexpressing hFPR1 were plated into 384-well cell culture plates (2,000/well/5 μL) in 1× Stimulation Buffer (LANCE Ultra cAMP Kit, Perkin Elmer, TRF0263). 1 μL compound solution (prepared in ddH2O containing 0.2% DMSO) was added to each well. Plates were centrifuged briefly, and cells were incubated at 37° C. in 5% CO2 for 10 minutes. 4 μL solution containing 2.5 μM Forskolin and 0.25 nM WKYMVm (an FPR1 agonist, GLPBIO, GC15140) was then added to each well. 5 μL of Eu-cAMP solution (diluted to manufacturer's recommended working concentration in Detection Buffer, LANCE Ultra cAMP Kit) and 5 μL of ULight-anti-cAMP solution (diluted in Detection Buffer, LANCE Ultra cAMP Kit) were added to each well. Plates were centrifuged briefly, and cells were incubated at room temperature for 1 hour. Fluorescence emission at 665 nm and 620 nm from the samples was measured by a Perkin Elmer Envision instrument.
as §1

Where only a bound is given, the exact number is not on record here.

T1 sequence (P21462 whole entry): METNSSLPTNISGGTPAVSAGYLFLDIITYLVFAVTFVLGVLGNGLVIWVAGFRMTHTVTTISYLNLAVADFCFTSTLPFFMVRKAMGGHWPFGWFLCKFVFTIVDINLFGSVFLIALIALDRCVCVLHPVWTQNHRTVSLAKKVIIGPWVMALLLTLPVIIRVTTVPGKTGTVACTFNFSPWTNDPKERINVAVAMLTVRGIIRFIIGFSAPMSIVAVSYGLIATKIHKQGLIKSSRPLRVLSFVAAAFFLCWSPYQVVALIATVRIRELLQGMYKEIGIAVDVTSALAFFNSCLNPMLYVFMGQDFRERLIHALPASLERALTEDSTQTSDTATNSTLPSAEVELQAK

Take `C[C@H](NC(=O)c1c(NS(=O)(=O)c2ccc(C#N)cc2)c(-c2ccc(F)cc2)nn1C)C(C)(C)C` [Compound 1, (S)-4-((4-cyanophenyl)sulfonamido)-N-(3,3-dimethylbutan-2-yl)-3-(4-fluorophenyl)-1-methyl-1H-pyrazole-5-carboxamide]: the IC50 in assay [1] and in assay [2] was 100 to 1000 nM in each case.

For the compound `CC[C@H](C)NC(=O)c1c(NS(=O)(=O)c2ccccc2)c(-c2ccc(F)cc2)nn1C` [Compound 3, (S)—N-(sec-butyl)-3-(4-fluorophenyl)-1-methyl-4-(phenylsulfonamido)-1H-pyrazole-5-carboxamide], the IC50 in assay [2] is > 25000 nM.

On to `C[C@H](NC(=O)c1c(NS(=O)(=O)c2ccc(Cl)cc2)c(-c2ccncc2)nn1C)C(C)(C)C` [Compound 5, (S)-4-((4-chlorophenyl)sulfonamido)-N-(3,3-dimethylbutan-2-yl)-1-methyl-3-(pyridin-4-yl)-1H-pyrazole-5-carboxamide], for which, in assay [2], the IC50 was > 25000 nM.

In the case of `CO[C@H]1CC[C@@H](c2nn(C)c(C(=O)N[C@@H](C)C(C)(C)C)c2NS(=O)(=O)c2ccc(C)cc2)CC1` [Compound 6, N—((S)-3,3-dimethylbutan-2-yl)-3-((1s,4R)-4-methoxycyclohexyl)-1-methyl-4-((4-methylphenyl)sulfonamido)-1H-pyrazole-5-carboxamide], the 50% inhibitory concentration (IC50) in assay [1] was < 100 nM; in assay [2], 100 to 1000 nM.

For `C[C@H](NC(=O)c1c(NS(=O)(=O)c2ccc(Cl)cc2)c(C2CCOCC2)nn1C)C(C)(C)C` [Compound 9, (S)-4-((4-chlorophenyl)sulfonamido)-N-(3,3-dimethylbutan-2-yl)-1-methyl-3-(tetrahydro-2H-pyran-4-yl)-1H-pyrazole-5-carboxamide], the IC50 in assay [1] and in assay [2] was 100 to 1000 nM each time.

For `C[C@H](NC(=O)c1c(NS(=O)(=O)c2ccc(Cl)cc2)c(C2CCOCC2)nn1C1CC1)C(C)(C)C` [Compound 10, (S)-4-((4-chlorophenyl)sulfonamido)-1-cyclopropyl-N-(3,3-dimethylbutan-2-yl)-3-(tetrahydro-2H-pyran-4-yl)-1H-pyrazole-5-carboxamide], the IC50 in assay [2] was > 25000 nM.

As to `C[C@H](NC(=O)c1noc(C2CCOCC2)c1NS(=O)(=O)c1ccc(Cl)cc1)C(C)(C)C` [Compound 11, (S)-4-((4-chlorophenyl)sulfonamido)-N-(3,3-dimethylbutan-2-yl)-5-(tetrahydro-2H-pyran-4-yl)isoxazole-3-carboxamide], in assay [2], the IC50 is > 25000 nM.

Consider `COCc1cccc(-c2nn(C)c(C(=O)N[C@@H](C)C(C)(C)C)c2NS(=O)(=O)c2ccc(C)cc2)c1` [Compound 15, (S)—N-(3,3-dimethylbutan-2-yl)-3-(3-(methoxymethyl)phenyl)-1-methyl-4-((4-methylphenyl)sulfonamido)-1H-pyrazole-5-carboxamide], for which the IC50 in assay [1] is 100 to 1000 nM; in assay [2], > 25000 nM.

As for `Cc1ccc(S(=O)(=O)Nc2c(C3=CCOCC3)nn(C)c2C(=O)N[C@@H](C)C(C)(C)C)cc1` [Compound 16, (S)-3-(3,6-dihydro-2H-pyran-4-yl)-N-(3,3-dimethylbutan-2-yl)-1-methyl-4-((4-methylphenyl)sulfonamido)-1H-pyrazole-5-carboxamide], the values for the IC50 in assay [1] and in assay [2] were 100 to 1000 nM and 1000 to 25000 nM, respectively.

For `Cc1ccc(S(=O)(=O)Nc2c(C3=CCC(C)(C)CC3)nn(C)c2C(=O)N[C@@H](C)C(C)(C)C)cc1` [Compound 18, (S)—N-(3,3-dimethylbutan-2-yl)-3-(4,4-dimethylcyclohex-1-en-1-yl)-1-methyl-4-((4-methylphenyl)sulfonamido)-1H-pyrazole-5-carboxamide], the half-inhibitory concentration (IC50) in assay [2] is > 25000 nM.

On to `CO[C@H]1CC[C@@H](c2nn(C)c(C(=O)N[C@@H](C)C(C)(C)C)c2NS(=O)(=O)c2ccc(Cl)cc2)CC1` [Compound 19, 4-((4-chlorophenyl)sulfonamido)-N—((S)-3,3-dimethylbutan-2-yl)-3-((1S,4R)-4-methoxycyclohexyl)-1-methyl-1H-pyrazole-5-carboxamide], for which the IC50 in assay [1] is < 100 nM; in assay [2] it was 100 to 1000 nM.

With `CO[C@H]1CC[C@@H](c2nn(C)c(C(=O)N[C@@H](C)C(C)(C)C)c2NS(=O)(=O)c2ccc(C3CC3)cc2)CC1` [Compound 20, 4-((4-cyclopropylphenyl)sulfonamido)-N—((S)-3,3-dimethylbutan-2-yl)-3-((1S,4R)-4-methoxycyclohexyl)-1-methyl-1H-pyrazole-5-carboxamide], the IC50 in assay [1] is < 100 nM; in assay [2], 100 to 1000 nM.

On to `CO[C@H]1CC[C@@H](c2nn(C)c(C(=O)N[C@@H](C)C(C)(C)C)c2NS(=O)(=O)c2ccc(C#N)cc2)CC1` [Compound 21, 4-((4-cyanophenyl)sulfonamido)-N—((S)-3,3-dimethylbutan-2-yl)-3-((1S,4R)-4-methoxycyclohexyl)-1-methyl-1H-pyrazole-5-carboxamide], for which the IC50 in assay [1] and in assay [2] was < 100 nM in each case.

With `COC1CC=C(c2nn(C)c(C(=O)N[C@@H](C)C(C)(C)C)c2NS(=O)(=O)c2ccc(Cl)cc2)CC1` (stereo partly drawn) [Compound 22, 4-((4-chlorophenyl)sulfonamido)-N—((S)-3,3-dimethylbutan-2-yl)-3-(4-methoxycyclohex-1-en-1-yl)-1-methyl-1H-pyrazole-5-carboxamide], the IC50 in assay [1] is < 100 nM; in assay [2], 100 to 1000 nM.

`Cc1ccc(S(=O)(=O)Nc2c(C3=CCC(F)(F)CC3)nn(C)c2C(=O)N[C@@H](C)C(C)(C)C)cc1` [Compound 29, (S)-3-(4,4-difluorocyclohex-1-en-1-yl)-N-(3,3-dimethylbutan-2-yl)-1-methyl-4-((4-methylphenyl)sulfonamido)-1H-pyrazole-5-carboxamide]: the IC50 in assay [2] is > 25000 nM.

In assay [2], `Cc1ccc(S(=O)(=O)Nc2c(C3=CCOCC3)nn(C)c2C(=O)N[C@@H](C)C(C)(C)C)cc1` [Compound 30, (S)-3-(3,6-dihydro-2H-pyran-4-yl)-N-(3,3-dimethylbutan-2-yl)-1-methyl-4-((4-methylphenyl)sulfonamido)-1H-pyrazole-5-carboxamide] gave a half-inhibitory concentration (IC50) of 1000 to 25000 nM.

For the compound `Cc1ccc(S(=O)(=O)Nc2c(C3(O)CCOCC3)nn(C)c2C(=O)N[C@@H](C)C(C)(C)C)cc1` [Compound 31, (S)—N-(3,3-dimethylbutan-2-yl)-3-(4-hydroxytetrahydro-2H-pyran-4-yl)-1-methyl-4-((4-methylphenyl)sulfonamido)-1H-pyrazole-5-carboxamide], in assay [2], the half-inhibitory concentration (IC50) was > 25000 nM.

Consider `Cc1ccc(S(=O)(=O)Nc2c(C3=CCC(C#N)CC3)nn(C)c2C(=O)N[C@@H](C)C(C)(C)C)cc1` (stereo partly drawn) [Compound 32, 3-(4-cyanocyclohex-1-en-1-yl)-N—((S)-3,3-dimethylbutan-2-yl)-1-methyl-4-((4-methylphenyl)sulfonamido)-1H-pyrazole-5-carboxamide], for which, in assay [2], the IC50 was in the range of 1000 to 25000 nM.

On to `Cc1ccc(S(=O)(=O)Nc2c(-c3cccc(OC(F)(F)F)c3)nn(C)c2C(=O)N[C@@H](C)C(C)(C)C)cc1` [Compound 34, (S)—N-(3,3-dimethylbutan-2-yl)-1-methyl-4-((4-methylphenyl)sulfonamido)-3-(3-(trifluoromethoxy)phenyl)-1H-pyrazole-5-carboxamide], for which the IC50 in assay [2] was > 25000 nM.

Turning to `Cc1ccc(S(=O)(=O)Nc2c(-c3cccc(OCC(C)C)c3)nn(C)c2C(=O)N[C@@H](C)C(C)(C)C)cc1` [Compound 35, (S)—N-(3,3-dimethylbutan-2-yl)-3-(3-isobutoxyphenyl)-1-methyl-4-((4-methylphenyl)sulfonamido)-1H-pyrazole-5-carboxamide], in assay [2], the IC50 is > 25000 nM.

`C[C@H](NC(=O)c1c(NS(=O)(=O)c2ccc(Cl)cc2)c(C2=CCC(F)(F)CC2)nn1C)C(C)(C)C` [Compound 36, (S)-4-((4-chlorophenyl)sulfonamido)-3-(4,4-difluorocyclohex-1-en-1-yl)-N-(3,3-dimethylbutan-2-yl)-1-methyl-1H-pyrazole-5-carboxamide]: the IC50 in assay [2] is > 25000 nM.

In assay [2], `COCc1cncc(-c2nn(C)c(C(=O)N[C@@H](C)C(C)(C)C)c2NS(=O)(=O)c2ccc(Cl)cc2)c1` [Compound 40, (S)-4-((4-chlorophenyl)sulfonamido)-N-(3,3-dimethylbutan-2-yl)-3-(5-(methoxymethyl)pyridin-3-yl)-1-methyl-1H-pyrazole-5-carboxamide] came in with an IC50 of 1000 to 25000 nM.

Broadly, the IC50 is the concentration at which inhibition is half-maximal.

Values taken from US20240018124A1, “MODULATORS OF FPR1 AND METHODS OF USING THE SAME” (BIOFRONT LTD, priority 2021, published 2024).
